The record followed here is US20140106387A1, “METHOD FOR CONTROLLING NAD(P)/NAD(P)H RATIO BY OXIDOREDUCTASE” (MD BIOALPHA CO., LTD., priority 2006, published 2014).

Each structure is given as a SMILES string.

One experiment deals with HEK293 cells. The experiment can be described thus: intracellular NADH / NAD(P)H concentration in HEK293 cells. Type of experiment: cell-based, human. Conditions: for intracellular NADH concentration: 2 hours. As to the method:
2) Determination of Intracellular NAD(P)H Using a Water-Soluble Tetrazolium Salt-8 (WST-8) in Living Cells:
A water-soluble tetrazolium salt was used to monitor the amount of NAD(P)H through its reduction to a yellow colored formazan dye. The total amount of NAD(P)H within viable cells in the medium was determined periodically by a spectrophotometer. Cells were seeded in 96-well plates (2×10^4 cells/well) and were cultured in 100 μl of a medium containing fetal bovine serum (FBS) and antibiotics for 24 hours. Immediately after treatment of the cells with a candidate compound (e.g., pyrano-1,2-naphthoquinone) at indicated concentrations and a 1/10 volume of a CCK-8 solution (Dojindo Molecular Technology), absorbance measurements were carried out using a spectrophotometer. The CCK-8 solution consisted of a water-soluble 2-(2-methoxy-4-nitrophenyl)-3-(4-nitrophenyl)-5-(2,4-disulfophenyl)-2H-tetrazolium monosodium salt (WST-8, 5 mM) and 1-methoxy-5-methylphenazinium methylsulfate (1-methoxy PMS, 0.2 mM) as an electron mediator. WST-8 produced a water-soluble yellow colored formazan dye through its bioreduction either in the presence of an electron carrier, 1-methoxy PMS and NAD(P)H or directly by NAD(P)H. Therefore, the reduction in tetrazolium salts mostly depends on the amount of intracellular NAD(P)H. The amount of formazan dye produced by the living cells in the medium was determined periodically at a wavelength of 450 nm (reference filter. 650 nm) by a spectrophotometer and compared to the values of control. In addition, a medium blank was prepared with only medium and physiological saline.
In order to monitor monochromatic fluorescence (350 nm), light was illuminated using a 75 W xenon arc lamp directed via a 10 Hz chopper wheel; specific fluorescence intensity was measured at a wavelength of 405±15 nm and 460±10 nm.
Specifically, the NQO1 activity and changes in the intracellular NAD(P)H fluorescence concentration in the presence/absence of NQO1 activity were measured in HepG2, HEK293 and pSG5 HA-NQO1 or pSG5 HA NQO1 C609T-inserted HEK293 cells.

Another experiment concerns HepG2 cells. The experiment can be described thus: calcium influx (Fluo-4) in HepG2 cells. Type of experiment: cell-based, human. The method, then:
Cells were grown on a coverslip in a culture medium for 24 hours, maintained in an RPMI 1640 serum-free medium for 1 hour, and pretreated with a calcium indicator Fluo-4 (5 μM) for 30 min. After pretreatment, the coverslip was mounted on a slide glass. Changes in an intracellular calcium concentration were observed using a fluorescence microscope (Carl Zeiss) for 30 sec, and cells were treated with a candidate compound (e.g. pyran-1,2-naphthoquinone) simultaneously with consecutive imaging of calcium changes using a fluorescence microscope (Carl Zeiss) for 2 sec. […] Changes in the intracellular calcium concentration were observed using a fluorescence microscope (Carl Zeiss) for 30 sec, and cells were treated with pyre-1,2-naphthoquinone (10 μM), followed by continuous shooting of calcium changes using a fluorescence microscope for 2 sec. Using an LSM Image Browser program (Carl Zeiss), 300 images taken for 10 min every 2 seconds were sorted and ordered in a time sequence and plotted on a graph.
For determination of the inner mitochondrial membrane potential (ΔΨm), 20 nM of TMRE (tetramethylrhodamine ethyl ester) as a fluorescent indicator was continuously applied to be loaded on cells. In order to monitor mitochondrial Ca^2+, cells on glass coverslips were loaded with 10 μM Rhod-2 AM via cold loading/warm incubation. In order to monitor cytosolic Ca^2+, cells were co-loaded with 10 μM Fluo-4 AM at 37′C for 30 min. […] Images for TMRE (red fluorescence), Rhod-2 (red fluorescence) and Fluo-4 (green fluorescence) were obtained using an inverted Zeiss 510META laser-scanning confocal microscope equipped with ×63 numerical aperture, 1.4 oil-immersion planapochromat lens. Green fluorescence and red fluorescence were illuminated with light of 488 nm and 543 nm. […]
Cells were cultured for 24 hours and then pre-treated with Fluo-4 for 30 min. Cells immobilized on a coverslip were transferred to a slide glass and treated with pyrano-1,2-naphthoquinone (10 μM), and at the same time images were taken every 2 seconds for 10 min using a fluorescence microscope.

Another experiment relates to AMPK. The experiment can be described thus: AMPK kinase assay in mouse tissues. It counts as in vivo.
A further experiment has as its system cardiomyocytes. The experiment can be described thus: intracellular NAD(P)H fluorescence in cardiomyocytes. Type of experiment: cell-based. The method, then:
HepG2 (human hepatoma cell line), HEK293 (Human embryonic kidney cell line), and C2C12/L6 myoblasts were purchased from American Type Culture Collection (ATCC, Manassas, Va., USA). LKB-/- MEFs were purchased from R.A. DePinho. Rat ventricular myocytes were enzymatically isolated from the heart of adult […] by a known method. Phosphorylation of AMPK ([…]) and ACC ([…]) was measured by Western blot analysis using Cell Signaling Technologies and pan- and phospho-specific antibodies (Upstate Biotechnology, Inc., Lake Placid, N.Y.). In order to monitor monochromatic fluorescence (350 nm), light was illuminated using a 75 W xenon arc lamp directed via a 10 Hz chopper wheel; specific fluorescence intensity was measured at a wavelength of 405±15 nm and 460±10 nm. Even though autofluorescence at 460 nm may occur from unknown intracellular components or cytosolic NAD(P)H, most of the light detected by the method of the present invention was generated from mitochondrial NAD(P)H. Specifically, the NQO1 activity and changes in the intracellular NAD(P)H fluorescence concentration in the presence/absence of NQO1 activity were measured in HepG2, HEK293 and pSG5 HA-NQO1 or pSG5 HA NQO1 […]-inserted HEK293 cells.

Experiment [1] can be described thus: glucose tolerance and insulin sensitivity in OLETF rats. Particulars: Days 3 and 21 after treatment. Type of experiment: in vivo, rat. The method, then: Glucose tolerance test (GTT) was carried out for 12 h-fasted mice by a known method. As described above, 12 h-fasted mice received an insulin stimulation test
FIG. 45 is a graph showing glucose tolerance and insulin sensitivity measured in vehicle-treated ° LEIF rats and βL-treated OLETF rats. Glucose and insulin were i.p. and i.v. injected, respectively, and the blood glucose level was measured.

Setting [2] is: DIO mice, oral 50 mg/kg, data not shown.

`CC1(C)CCC2=C(O1)c1ccccc1C(=O)C2=O` [βL, 2,2-Dimethyl-3,4-dihydro-2H-benzo[h]chromene-5,6-dione]: the figures for the “intracellular NADH concentration” value in the experiment on HEK293 cells (HEK293 cells after insertion of an NQO1 gene) and in the experiment on HEK293 cells (HEK293 cells having no NQO1 activity) were “concentration-dependent decrease of NADH” and “no change in an NADH concentration”, respectively. The “NAD(P)H oxidation” value is given as “βL-facilitated NAD(P)H oxidation” in the experiment with HEK293 cells (HEK293 cells with insertion of a wild-type NQO1 gene), “no oxidation of NAD(P)H” in the experiment with HEK293 cells (HEK293 cells with insertion of catalytically inactive NQO1C609T gene) and “no such changes” in the experiment with HEK293 cells (control HEK293 cells without the NQO1 activity). The “cytosolic Ca2+ concentration ([Ca2+]c) and mitochondrial Ca2+ concentration ([Ca2+]m)” value in the experiment on HepG2 cells (Fluo4 and Rhod-2-AM fluorescence, cells not given) is on record as “increases”. Also, the “time of calcium peak after treatment” value in the experiment on HepG2 cells (HepG2, 10 μM) is “about 10 sec”. In the experiment with AMPK (C57BL/6 mice, 5 mg/kg tail vein, 2 hours and 4 hours), the “AMPK activity in the liver and gonadal adipose tissues” value was “increased AMPK activity”. In addition, the “AMPK activity in liver, EDL and soleus muscle vs vehicle-treated control” value in the experiment on AMPK (DIO mice, oral 50 mg/kg) is “higher”. Also, the “duration of oral administration effect on AMPK activity” value in the experiment with AMPK (setting [2]) is listed as “about 6 hours”. Further, in the experiment with AMPK (setting [2]), the “time of maximum oral administration effect on AMPK activity” value was found to be 2 h. In the experiment with cardiomyocytes, the “decrease of NAD(P)H” value is on record as “about 40%”. The “glucose tolerance and insulin sensitivity” value in experiment [1] was “improvements in glucose tolerance and insulin sensitivity”.
